In patent publication US10633419B2, “Immunomodulators” (BRISTOL-MYERS SQUIBB COMPANY, priority 2014, dated 2020):
Starred links: 1 amine or outer side, 2 acyl side, 3 side chain; linkers in the order of their positions; H or OH if unused. Positions of bridges follow the written chain, without caps; N, C: chain ends. Non-standard residues stand in square brackets, D forms with d. Residues, ends and D or L forms follow the SMILES beside them. *: point of attachment. εLys(α-Octadecanedioyl) = O=C(O)CCCCCCCCCCCCCCCCC(=O)N[C@@H](CCCCN*)C(=O)O; X18 = O=C(O)CCCCCCCCCCCCCCC(=O)N[C@@H](CC(=O)NCCCOCCOCCOCCCN*)C(=O)O; Trp(1-CH2COOH) = N[C@@H](Cc1cn(CC(=O)O)c2ccccc12)C(=O)O; X14 = O=C(O)CCCCCCCCCCNC(=O)CCC(=O)NCCCOCCOCCOCCCN*; NH(CH2)14COOH = O=C(O)CCCCCCCCCCCCCCN*; X19 = O=C(C1C[C@H](O)CN1[*:1])[*:2]; Palmitoyl = CCCCCCCCCCCCCCCC(=O)*; Hyp = O=C(O)[C@@H]1C[C@@H](O)CN1; Undecanoyl = CCCCCCCCCCC(=O)*; NMeNle = CCCC[C@H](NC)C(=O)O; NMeA = CN[C@@H](C)C(=O)O; Aun = NCCCCCCCCCCC(=O)O; Dab = NCC[C@H](N)C(=O)O; Dap = NC[C@H](N)C(=O)O

Biological target: T1, PD-L1 (Homo sapiens, UniProt Q9NZQ7)
T1 construct: hPDL1(19-239)-TVMV-His; made in house; host or cells: HEK293T
Assay: PD-1/PD-L1 Homogenous Time-Resolved Fluorescence (HTRF) binding assay (PD-1-Ig/PD-L1-His)
Details: inhibition of PD-1-Ig binding to PD-L1-TVMV-His; value given as number; read-out: HTRF IC50
Description: The ability of the macrocyclic peptides of the present disclosure to bind to PD-L1 was investigated using a PD-1/PD-L1 Homogenous Time-Resolved Fluorescence (HTRF) binding assay.
Homogenous Time-Resolved Fluorescence (HTRF) Assays of Binding of Soluble PD-1 to Soluble PD-L1. Soluble PD-1 and soluble PD-L1 refers to proteins with carboxyl-end truncations that remove the transmembrane-spanning regions and are fused to heterologous sequences, specifically the Fc portion of the human immunoglobuling G sequence (Ig) or the hexahistidine epitope tag (His). All binding studies were performed in an HTRF assay buffer consisting of dPBS supplemented with 0.1% (w/v) bovine serum albumin and 0.05% (v/v) Tween-20. For the PD-1-Ig/PD-L1-His binding assay, inhibitors were pre-incubated with PD-L1-His (10 nM final) for 15 m in 4 μl of assay buffer, followed by addition of PD-1-Ig (20 nM final) in 1 μl of assay buffer and further incubation for 15m. PD-L1 fusion proteins from either human, cynomologous macaques, mouse, or other species were used. HTRF detection was achieved using europium crypate-labeled anti-Ig monoclonal antibody (1 nM final) and allophycocyanin (APC) labeled anti-His monoclonal antibody (20 nM final). Antibodies were diluted in HTRF detection buffer and 5 μl was dispensed on top of binding reaction. The reaction was allowed to equilibrate for 30 minutes and signal (665 nm/620 nm ratio) was obtained using an EnVision fluorometer. Additional binding assays were established between PD-1-Ig/PD-L2-His (20 and 5 nM, respectively), CD80-His/PD-L1-Ig (100 and 10 nM, respectively) and CD80-His/CTLA4-Ig (10 and 5 nM, respectively). Binding/competition studies between biotinylated Compound No. 71 and human PD-L1-His were performed as follows. Macrocyclic peptide inhibitors were pre-incubated with PD-L1-His (10 nM final) for 60 minutes in 4 μl of assay buffer followed by addition of biotinylated Compound No. 71 (0.5 nM final) in 1 μl of assay buffer. Binding was allowed to equilibrate for 30 minutes followed by addition of europium crypated labeled Streptavidin (2.5 pM final) and APC-labeled anti-His (20 nM final) in 5 μl of HTRF buffer. The reaction was allowed to equilibrate for 30m and signal (665 nm/620 nm ratio) was obtained using an EnVision fluorometer.
Recombinant Proteins. Carboxyl-truncated human PD-1 (amino acids 25-167) with a C-terminal human Ig epitope tag [hPD-1 (25-167)-3S-IG] and human PD-L1 (amino acids 18-239) with a C-terminal His epitope tag [hPD-L1(19-239)-tobacco vein mottling virus protease cleavage site (TVMV)-His] were expressed in HEK293T cells and purified sequentially by recombinant Protein A affinity chromatography and size exclusion chromatography. Human PD-L2-His (Sino Biologicals), CD80-His (Sino Biologicals), CTLA4-Ig (RnD Systems) were all obtained through commercial sources.

T1 sequence (Q9NZQ7 with tags, fused parts or gaps): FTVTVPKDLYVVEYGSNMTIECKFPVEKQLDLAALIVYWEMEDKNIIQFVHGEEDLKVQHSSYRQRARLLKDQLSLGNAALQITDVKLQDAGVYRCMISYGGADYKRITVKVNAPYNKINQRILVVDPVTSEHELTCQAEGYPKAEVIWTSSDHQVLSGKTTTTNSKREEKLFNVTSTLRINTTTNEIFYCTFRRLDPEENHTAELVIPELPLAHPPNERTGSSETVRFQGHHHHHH

| IC50 | SMILES |
| --- | --- |
| 8.5 nM | CCCCCCCCCCCCCCCC(=O)N[C@@H](CCn1cc(C[C@H](NC(=O)CNC(=O)[C@@H]2CSCC(=O)N[C@@H](Cc3ccc(O)cc3)C(=O)N(C)[C@@H](C)C(=O)N[C@@H](CC(=O)O)C(=O)N3CCC[C@H]3C(=O)N[C@@H](Cc3c[nH]cn3)C(=O)N[C@@H](CCCCN)C(=O)N3C[C@H](O)C[C@H]3C(=O)N[C@@H](Cc3c[nH]c4ccccc34)C(=O)N[C@@H](CCCCN)C(=O)N[C@@H](Cc3cn(CC(=O)O)c4ccccc34)C(=O)N(C)[C@@H](CCCC)C(=O)N(C)[C@@H](CCCC)C(=O)N[C@@H](CCC(=O)O)C(=O)N2)C(N)=O)nn1)C(=O)O [Example 14072] |
| 19 nM | CCCC[C@H]1C(=O)N(C)[C@@H](CCCC)C(=O)N[C@@H](CC(C)C)C(=O)N[C@H](C(=O)NCCCOCCOCCOCCCNC(=O)CCC(=O)NCCCCCCCCCCC(=O)O)CSCC(=O)N[C@@H](Cc2ccc(O)cc2)C(=O)N(C)[C@@H](C)C(=O)N[C@@H](CC(N)=O)C(=O)N2CCC[C@H]2C(=O)N[C@@H](CN)C(=O)N[C@@H](CCC(N)=O)C(=O)N2C[C@H](O)C[C@H]2C(=O)N[C@@H](Cc2c[nH]c3ccccc23)C(=O)N[C@@H](CO)C(=O)N[C@@H](Cc2cn(CC(=O)O)c3ccccc23)C(=O)N1C [Example 11086] ({CH2CO}-Y[NMeA]NP[Dap]Q[Hyp]WS[Trp(1-CH2COOH)][NMeNle][NMeNle]LC-X14; thioether N-14) |
| 18.8 nM | CCCC[C@H]1C(=O)N(C)[C@@H](CCCC)C(=O)N[C@@H](CC(C)C)C(=O)N[C@H](C(=O)NCC(=O)NCC(=O)NCC(=O)NCCCCCCCCCCC(=O)O)CSCC(=O)N[C@@H](Cc2ccc(O)cc2)C(=O)N(C)[C@@H](C)C(=O)N[C@@H](CC(N)=O)C(=O)N2CCC[C@H]2C(=O)N[C@@H](CN)C(=O)N[C@@H](CCC(N)=O)C(=O)N2C[C@H](O)C[C@H]2C(=O)N[C@@H](Cc2c[nH]c3ccccc23)C(=O)N[C@@H](CCN)C(=O)N[C@@H](Cc2cn(CC(=O)O)c3ccccc23)C(=O)N1C [Example 11094] ({CH2CO}-Y[NMeA]NP[Dap]Q[Hyp]W[Dab][Trp(1-CH2COOH)][NMeNle][NMeNle]LCGGG[Aun]-OH; thioether N-14) |
| 7.1 nM | CCCC[C@H]1C(=O)N(C)[C@@H](CCCC)C(=O)N[C@@H](CC(C)C)C(=O)N[C@H](C(=O)NCCCOCCOCCOCCCNC(=O)CCC(=O)NCCCCCCCCCCC(=O)O)CSCC(=O)N[C@@H](Cc2ccc(O)cc2)C(=O)N(C)[C@@H](C)C(=O)N[C@@H](CC(N)=O)C(=O)N2CCC[C@H]2C(=O)N[C@@H](Cc2cnc[nH]2)C(=O)N[C@@H](CCC(=O)O)C(=O)N2C[C@H](O)C[C@H]2C(=O)N[C@@H](Cc2c[nH]c3ccccc23)C(=O)N[C@@H](CCN)C(=O)N[C@@H](Cc2cn(CC(=O)O)c3ccccc23)C(=O)N1C [Example 11075] ({CH2CO}-Y[NMeA]NPHE[Hyp]W[Dab][Trp(1-CH2COOH)][NMeNle][NMeNle]LC-X14; thioether N-14) |

Same assay, conditions: inhibition of PD-1-Ig binding to PD-L1-TVMV-His; value given as range class; read-out: HTRF IC50

| SMILES | IC50 |
| --- | --- |
| CCCC[C@H]1C(=O)N(C)[C@@H](CCCC)C(=O)N[C@@H](CC(C)C)C(=O)N[C@H](C(=O)NCC(=O)N[C@@H](Cc2cn(CCOCCOCCOCCOCCOCCOCCOCCOCCOCCOCCOCCNC(=O)CC[C@H](NC(=O)CCCCCCCCCCCCCCCCC(=O)O)C(=O)O)nn2)C(=O)O)CSCC(=O)N[C@@H](Cc2ccc(O)cc2)C(=O)N2CCCC[C@H]2C(=O)N[C@@H](CC(N)=O)C(=O)N2CCC[C@H]2C(=O)N[C@@H](CN)C(=O)N[C@@H](CC(C)C)C(=O)N2C[C@H](O)C[C@H]2C(=O)N[C@@H](Cc2c[nH]c3ccccc23)C(=O)N[C@@H](CCN)C(=O)N[C@@H](Cc2cn(CC(=O)O)c3ccccc23)C(=O)N1C [Example 14104] | 100 to 1600 nM |
| CCCC[C@H]1C(=O)N(C)[C@@H](CCCC)C(=O)N[C@@H](CC(C)C)C(=O)N[C@H](C(=O)NCC(=O)NCCCCCCCCCCCCCCC(=O)O)CSCC(=O)N[C@@H](Cc2ccc(O)cc2)C(=O)N(C)[C@@H](C)C(=O)N[C@@H](CC(N)=O)C(=O)N2CCC[C@H]2C(=O)N[C@@H](CN)C(=O)N[C@@H](CC(C)C)C(=O)N2C[C@H](O)C[C@H]2C(=O)N[C@@H](Cc2c[nH]c3ccccc23)C(=O)N[C@@H](CCN)C(=O)N[C@@H](Cc2cn(CC(=O)O)c3ccccc23)C(=O)N1C [Example 11197] ({CH2CO}-Y[NMeA]NP[Dap]L[Hyp]W[Dab][Trp(1-CH2COOH)][NMeNle][NMeNle]LCG-{NH(CH2)14COOH}; thioether N-14) | 10 to 99 nM |
| CCCC[C@H]1C(=O)N(C)[C@@H](CCCC)C(=O)N[C@@H](CCC(=O)O)C(=O)N[C@H](C(=O)NCC(=O)N[C@@H](Cc2cn(CC[C@H](NC(=O)CCCCCCCCCCCCCCC(=O)O)C(=O)O)nn2)C(=O)N[C@@H](CC(=O)O)C(N)=O)CSCC(=O)N[C@@H](Cc2ccc(O)cc2)C(=O)N(C)[C@@H](C)C(=O)N[C@@H](CC(=O)O)C(=O)N2CCC[C@H]2C(=O)N[C@@H](Cc2c[nH]cn2)C(=O)N[C@@H](CCCCN)C(=O)N2C[C@H](O)C[C@H]2C(=O)N[C@@H](Cc2c[nH]c3ccccc23)C(=O)N[C@@H](CCCCN)C(=O)N[C@@H](Cc2c[nH]c3ccccc23)C(=O)N1C [Example 14065] | 10 to 99 nM |
| CCCCCCCCCCCCCCCC(=O)NCCCC[C@H](NC(=O)[C@H](CC(=O)O)NC(=O)CNC(=O)CNC(=O)[C@@H]1CSCC(=O)N[C@@H](Cc2ccc(O)cc2)C(=O)N(C)[C@@H](C)C(=O)N[C@@H](CC(N)=O)C(=O)N2CCC[C@H]2C(=O)N[C@@H](CCN)C(=O)N[C@@H](CC(C)C)C(=O)N2C[C@H](O)C[C@H]2C(=O)N[C@@H](Cc2c[nH]c3ccccc23)C(=O)N[C@@H](CO)C(=O)N[C@@H](Cc2c[nH]c3ccccc23)C(=O)N(C)[C@@H](CCCC)C(=O)N(C)[C@@H](CCCC)C(=O)N[C@@H](CCCNC(=N)N)C(=O)N1)C(N)=O [Example 11026] ({CH2CO}-Y[NMeA]NP[Dab]L[Hyp]WSW[NMeNle][NMeNle]RCGGDK(Palmitoyl)-NH2; thioether N-14) | 100 to 1600 nM |

Second part, the molecule after the results:

| IC50 | SMILES |
| --- | --- |
| 100 to 1600 nM | CCCC[C@H]1C(=O)N(C)[C@@H](CCCC)C(=O)N[C@@H](CC(C)C)C(=O)N[C@H](C(=O)NCC(=O)N[C@@H](CCC(=O)NCCCC[C@H](NC(=O)CCCCCCCCCCCCCCCCC(=O)O)C(=O)O)C(=O)O)CSCC(=O)N[C@@H](Cc2ccc(O)cc2)C(=O)N(C)[C@@H](C)C(=O)N[C@@H](CC(N)=O)C(=O)N2CCC[C@H]2C(=O)N[C@@H](CN)C(=O)N[C@@H](CC(C)C)C(=O)N2C[C@H](O)C[C@H]2C(=O)N[C@@H](Cc2c[nH]c3ccccc23)C(=O)N[C@@H](CCN)C(=O)N[C@@H](Cc2cn(CC(=O)O)c3ccccc23)C(=O)N1C [Example 11177] ({CH2CO}-Y[NMeA]NP[Dap]L[Hyp]W[Dab][Trp(1-CH2COOH)][NMeNle][NMeNle]LCGE(εLys(α-Octadecanedioyl))-OH; thioether N-14) |
| 10 to 99 nM | CCCC[C@H]1C(=O)N(C)[C@@H](CCCC)C(=O)N[C@@H](CC(C)C)C(=O)N[C@@H](C(=O)N[C@@H](CC(=O)O)C(=O)N[C@@H](CCC(=O)NCCCOCCOCCOCCCNC(=O)C[C@H](NC(=O)CCCCCCCCCCCCCCC(=O)O)C(=O)O)C(=O)O)CSCC(=O)N[C@@H](Cc2ccc(O)cc2)C(=O)N(C)[C@@H](C)C(=O)N[C@@H](CC(N)=O)C(=O)N2CCC[C@@H]2C(=O)N[C@@H](CN)C(=O)N[C@@H](CC(C)C)C(=O)N2C[C@@H](O)CC2C(=O)N[C@@H](Cc2c[nH]c3ccccc23)C(=O)N[C@@H](CCN)C(=O)N[C@@H](Cc2cn(CC(=O)O)c3ccccc23)C(=O)N1C (some centres unmarked) [Example 11245] ({CH2CO}-Y[NMeA]N[dP][Dap]L[X19]W[Dab][Trp(1-CH2COOH)][NMeNle][NMeNle]L[dC]DE(X18)-OH; thioether N-14) |
| 10 to 99 nM | CCCCCCCCCCC(=O)NCCCC[C@H](NC(=O)[C@H](CC(=O)O)NC(=O)[C@@H]1CSCC(=O)N[C@@H](Cc2ccc(O)cc2)C(=O)N(C)[C@@H](C)C(=O)N[C@@H](CC(N)=O)C(=O)N2CCC[C@H]2C(=O)N[C@@H](Cc2cnc[nH]2)C(=O)N[C@@H](CCC(=O)O)C(=O)N2C[C@H](O)C[C@H]2C(=O)N[C@@H](Cc2c[nH]c3ccccc23)C(=O)N[C@@H](CCN)C(=O)N[C@@H](Cc2cn(CC(=O)O)c3ccccc23)C(=O)N(C)[C@@H](CCCC)C(=O)N(C)[C@@H](CCCC)C(=O)N[C@@H](CC(C)C)C(=O)N1)C(N)=O [Example 11011] ({CH2CO}-Y[NMeA]NPHE[Hyp]W[Dab][Trp(1-CH2COOH)][NMeNle][NMeNle]LCDK(Undecanoyl)-NH2; thioether N-14) |
